Assay results: patent publication US20090074885A1, “Reversible Hydrophobic Modification of Drugs for Improved Delivery to Cells” (Roche Madison Inc., priority 2003, published 2009)
Like-named read-outs stand apart in the source and are kept apart here.

Legend:
Jurkat cells = experiment: Flow cytometry of prodrug delivery to Jurkat cells; type: cell-based, human
Experimental: For experiments conducted on Jurkat cells (8.0×10^5 cells/ml in media), the cells were isolated by centrifugation and resuspended in ITG at a density of 4.0×10^6 cells/ml. Exposure to the drug/prodrug was conducted by passing the cells in suspension in ITG (200 μl) through the mixing chamber. After 30 sec the cells were centrifuged and the drug solution was removed (aspirated), the cells were resuspended in complete media (2 ml) and plated in 6-well plates for imaging. Passing the cells through the mixing chamber (no drug/prodrug treatment) had no effect on cell viability when compared to cells plated without passing through the mixing chamber.
Flow cytometry was conducted on a FacsCalibur Flow Cytometer (Becton Dickinson Biosciences). Jurkat cells were isolated and treated with PI and II as previously described. After 4 min the cells were centrifuged and the drug solution was removed (aspirated) and 1 ml complete media was added to the cells. During analysis, PI was added to control cells (1 ml of 8.0×10^5 cells/ml in complete media, 1 drop of 1 mg/ml PI solution, no OS or mixing chamber) to determine normal cell senescence. Data were collected for a total of 10,000 events using Cell Quest™ (Becton Dickinson Biosciences), and analyzed with FlowJo (Tree Star Inc.) for single cell events (approximately 80% of events), and secondly for PI. For Jurkat cells treated with II, forward scatter was analogous to control cells, while side scatter increased approximately two fold. Reported data represents a histogram of PI intensity for single cell events from four independent preparations. Cells were considered PI positive at a value of 100 on the PI intensity axis of the histogram for the cell percentages described.

[1] = test system: Hepa 1-6 (mouse hepatoma); experiment: WST cytotoxicity assay, Hepa 1-6; type: cell-based; settings: for IC50: Hepa 1-6, 4 min drug exposure, read-out: Mean IC50
Experimental: Antiproliferative/Cytotoxic in vitro studies on PI, RRH-PI prodrugs, melphalan, and C12PMMA-melphalan. In vitro cytotoxicity testing was conducted on Hepa 1-6 (mouse hepatoma), SK-OV-3 (human ovarian carcinoma), and MC38 (mouse colon carcinoma) cells using a tetrazolium based assay (WST, Dojindo Molecular Technologies). For the WST assay, Hepa 1-6 (2.0×10^5 cells well), SK-OV-3 (7.5×10^5 cells well), and MC38 (8.5×10^5 cells well) were seeded in 1000 μL media into 12-well plates 24 h prior to testing (starting confluency ˜50%). Following removal of media, drug/prodrug solution was added drop-wise to quadruplicate wells, using the mixing chamber. Effective drug concentrations were calculated from the amount of drug added in the total volume of OS and aqueous solution. Following 4 min of drug solution exposure, the solution was removed, and 1000 μl fresh complete media was added to each well. After the cells were incubated for 24-48 h, WST-1 (20 μl of a 5 mM solution in PBS) and N-methylphenazonium methyl sulfate (PMS, 20 μl 0.2 mM solution in PBS) were added and the cells were incubated for 1-4 h. For testing with MC38 cells, the amounts of WST-1 and PMS were doubled. Following incubation, 100 μl of sample was transferred to quadruplicate wells on a 96-well plate, and the absorbance (438 nm) values were measured on a SPECTRAmax Plus^384 microplate spectrophotometer (Molecular Devices Corporation). Data represents the mean A438 values of 16 wells with standard deviation, corrected for media contribution, and normalized against cells in media with no drug/prodrug treatment (reported as % cell viability±standard deviation).
The concentration of drug (μM) that is required for 50% inhibition in vitro is reported as the IC50. The reported values were calculated from the best fit line (Excel) for a plot of effective drug concentration against % cell viability, and include the r^2 value. The reported IC50 values for multiple RRH-PI plots are reported as IC50 (μM)±standard deviation.

[2] = test system: MC38 metastases and hepatic cells; experiment: Portal vein injection in tumor-bearing mice; type: in vivo, mouse
Experimental: For intraportal injections both the portal vein and the celiac artery were clamped to occlude blood flow into the liver. In other experiments, the portal vein and the celiac artery were not clamped, preserving full portal blood flow during the experiment. In all cases, the vena cava was not clamped in order to avoid increased pressure within the liver during the injection procedure. For experiments with occluded blood flow, the blood in the liver was flushed out with 1 ml of ITG delivered through the portal vein (1 min). Then 0.300 μmol of PI or II in 40 μl of DMF was delivered together with 400 μl of ITG via the mixing chamber. Five min after injection the livers were perfused with 3 ml of ITG to flush any drug remaining in the vasculature, and livers were sectioned as above or the hepatocytes were isolated.

hepatocytes = experiment: Uptake by hepatocytes in vivo after intraportal injection (occluded blood flow); design: species or system mouse; settings: normal liver, portal vein injection; for cells (hepatocytes) PI positive: 0.300 μmol
Experimental: Uptake of BDMODS-PI by hepatocytes in vivo. Intraportal injections were conducted in order to target hepatocytes. For the injections, both the portal vein and the celiac artery were clamped to occlude blood flow into the liver. The vena cava was not clamped in order to avoid increased pressure within the liver during the injection procedure. The blood in the liver was flushed out with 1 ml of ITG delivered through the portal vein (1 min). 0.300 μmol PI or II in 40 μl of DMF was then delivered together with 400 μl ITG via the mixing chamber. 5 min after injection the livers were perfused with 3 ml of ITG to flush any drug remaining in the vasculature, and livers were sectioned as above or the hepatocytes were isolated. Slides were prepared from the resulting hepatocyte isolations for examination by fluorescent microscopy (Axioplan2 fluorescent microscope in the fluorescein fluorescent channel (λex=BP 546/90, λem=LP 515 nm filter set) due to signal intensity, magnification=400×, Zeiss) by placing a drop of the cell suspension (about 20 μl) on a clean glass slide and preparing a cell smear. Random fields were examined, and the number of positive cells was counted out of a total of 200 cells in order to determine the percentage of PI positive cells in the sample.
The amount of PI retained in hepatocytes was also quantitated following intraportal injections of PI and II. The isolated hepatocyte cell suspensions were dissolved in 0.5% octyl glycoside in 10 mM HEPES buffer, pH 7.5. Nucleic acid was then isolated from cell suspensions (0.5 ml) using phenol extraction. PI fluorescence spectra were monitored (Shimadzu RF 1501 Spectrophotometer) using an excitation wavelength of 530 nm and an emission wavelength of 617 nm. All spectra were background subtracted using the fluorescence of cell suspensions from untreated animals. PI calibration curves were generated by mixing increasing amounts of PI in each of the samples. […] The amount of PI uptake was then calculated according to the equation: Amt(%)=100×PIs/PIi, where PIs is the amount of PI in the cell suspension and PIi is the amount of PI or BDMOD-PI injected (corrected for the sample size relative to the total liver).

[3] = cells suspended in ITG passed through mixing chamber with drug in DMSO
[4] = portal vein and celiac artery clamped (occluded blood flow)

| SMILES | PI positive cells (signal above 100) (Jurkat cells; PI in aqueous solution, no OS, no mixing chamber (control)) | PI positive cells (signal above 100) (Jurkat cells; [3]) | IC50 ([1]; WST 24 h after) | IC50 ([1]; WST 48 h after) | nuclear staining after portal vein injection ([2]; 400 μl into portal vein of liver with MC38 metastases) | PI labeling after portal vein injection [2, 4] | injected PI bound to hepatocyte nucleic acid (hepatocytes) | cells (hepatocytes) PI positive (hepatocytes) | cell viability at highest concentration tested, prodrug premixed with ITG (10 min) ([1]; Hepa 1-6, 833 μM) | PI labeling after portal vein injection ([2]; preserved portal blood flow) | PI labeling after portal vein injection ([2]; preserved portal blood flow, listed as BDMODS-PI) |
| --- | --- | --- | --- | --- | --- | --- | --- | --- | --- | --- | --- |
| CC[N+](C)(CC)CCC[n+]1c(-c2ccccc2)c2cc(N)ccc2c2ccc(N)cc21.[I-].[I-] [PI, Propidium iodide, reference compound] | 0.3±0.1% | 8.4±0.6% | > 1250 µM | > 1700 µM | did not result in nuclear staining of any structures | a few labeled cells | 1.2% | approximately 1% | – | – | – |
| CCCCCCCCCCCCCCCCCC[Si](C)(C)Nc1ccc2c(c1)c(-c1ccccc1)[n+](CCC[N+](C)(CC)CC)c1cc(N[Si](C)(C)CCCCCCCCCCCCCCCCCC)ccc21.[I-].[I-] [II, 3,8-bis[((dimethyl)octadecylsilazyl)amine] 5-(3,3-diethyl-3-methylammoniumpropyl) 6-phenyl phenanthridinium diiodide] | – | 99.5±0.1% | 282 µM | 334 µM | – | prominent labeling of portal structures and adjacent cells, including hepatocytes, but not of the metastases | 14% | approximately 70% | 108±1.3% | all metastases were PI-negative | No labeled cells in MC38 metastases |
